Data on three compounds can be found in patent US20230210877A1, “A Composition for Management of COVID-19 and Associated Disorders” (priority 2020, published 2023).

In the assay the test system is isoproterenol induced myocardial infarction. Briefly: isoproterenol induced myocardial infarction rat model. It is filed as in vivo. Also on record: TNF-A: unit not given here. Conditions: rats, isoproterenol 90 mg/kg bwt. + treatment 138 mg/kg bwt. (total).

Take `O=C(O)[C@H]1O[C@@H](Oc2cc3oc(-c4ccccc4)cc(=O)c3c(O)c2O)[C@H](O)[C@@H](O)[C@@H]1O` [Biacalin, Baicalin]: the GOT was 110.37, the GPT turned out to be 79.57, the LDH was 138.67 and the TNF-A is listed as 438.58.
As for `O=C(O[C@@H]1Cc2c(O)cc(O)cc2O[C@@H]1c1cc(O)c(O)c(O)c1)c1cc(O)c(O)c(O)c1` [EGCG, Epigallocatechin gallate], the GOT stood at 139.15, the GPT was 75.30 and the TNF-A is on record as 408.29.
In the case of `O=c1c(O)c(-c2ccc(O)c(O)c2)oc2cc(O)cc(O)c12` [Quercetin], the GOT amounted to 103.33, the GPT was 90.47, the LDH came out at 121.00 and the TNF-A came out at 411.70.
